According to patent publication US12358948B2, “Neurotensinergic agonists and methods of using same preventing or treating pain” (priority 2019, dated 2025):
*1 amine or outer side, *2 acyl side, *3 side chain or, on linkers, in order; H or OH if unused. Where a SMILES comes first, the peptide text is derived from it. Bridges are numbered along the chain shown (N, C = ends). [ ]: non-standard residue; d: D form. ξ: configuration not given here. ξαMeNle(6-ylidene) = CC(CCCC=[*:3])(N[*:1])C(=O)[*:2]; Phe(4-F) = N[C@@H](Cc1ccc(F)cc1)C(=O)O; Phe(4-I) = N[C@@H](Cc1ccc(I)cc1)C(=O)O; AllylGly = C=CC[C@H](N)C(=O)O; R5 = C=CCCC[C@@](C)(N)C(=O)O; S5 = C=CCCC[C@](C)(N)C(=O)O; Nle = CCCC[C@H](N)C(=O)O; Orn = NCCC[C@H](N)C(=O)O; Dab = NCC[C@H](N)C(=O)O; Nva = CCC[C@H](N)C(=O)O; Dap = NC[C@H](N)C(=O)O

What was measured:
hNTS1 receptor = biological target: T1, hNTS1 receptor (Homo sapiens, UniProt P30989); assay: Competitive radioligand binding assay on the hNTS1 receptor; settings: displacement of 125I-[Tyr3]-NT, membranes of CHO-K1 cells expressing hNTS1; read-out: IC50 NTS1
T1 construct: membranes prepared from them
Protocol: (§1) CHO-K1 (Chinese Hamster Ovary) cells stably expressing hNTS1 and 1321N1 cells stably expressing hNTS2 (ES-690-C and ES-691-C from PerkinElmer, Montréal, Canada) were cultured respectively in Ham's F12 and in DMEM culture media. Culture media were supplemented with 10% FBS, 100 U/mL penicillin, 100 μg/mL streptomycin, 20 mM HEPES, and 0.4 mg/mL G418 at 37° C. in a humidified chamber at 5% CO2.
(§2) The cells expressing hNTS1 were frozen when they reached 80% confluency. They were scrapped off the dish with 10 mM Tris buffer, 1 mM EDTA, pH 7.5 and centrifuged at 15,000 g for 5 min at 4° C. The pellet was then re-suspended in 1 mL binding buffer. The cells expressing hNTS2 were also frozen when they reached 80% confluency. They were scraped off the dish with PBS, 0.5 mM EDTA, pH 7.5 and sonicated for 5 minutes (pulse 30 s/5 s off, amplitude 40%). They were ultracentrifuged at 100 000 g for 60 minutes at 4° C. The pellet was re-suspended in 1 mL freezing buffer (PBS, glycerol, 0.5 mM EDTA), sonicated for 1 minute (pulse 30 s/5 s off, amplitude 50%) and further diluted in binding buffer. Competitive radioligand binding experiments were performed by incubating 15 μg of cell membranes expressing the hNTS1 receptor with […] of ^125I-[Tyr^3]-NT (2200 Ci/mmol) or 50 μg of cell membranes expressing the hNTS2 receptor with […] of ^125I-[Tyr^3]-NT in binding buffer (50 mM Tris-HCl, pH 7.5, 0.2% BSA) in the presence of increasing concentrations of analogues ranging from 10^−11 to 10^−4 M for 60 min at 25° C. After incubation, the binding reaction mixture was transferred in PEI-coated 96-well filter plates (glass fiber filters GF/B, Millipore, Billerica, MA). Reaction was terminated by filtration, and plates were washed three times with 200 μL ice-cold binding buffer. Glass filters were then counted using a γ-counter (2470 Wizard2, PerkinElmer, Mississauga, Ontario, Canada). Non-specific binding was measured in the presence of 10^−5 M unlabeled NT (8-13) and represented less than 5% of total binding. IC50 values were determined from competition curves as the unlabeled ligand concentration inhibiting 50% of ^125I-[Tyr^3]-NT-specific binding.
(§3) Competitive radioligand binding data were plotted using the nonlinear regression One-site-Fit Log(IC50) and represented the mean±SEM of at least three independent experiments in triplicates.

hNTS2 receptor = biological target: T2, hNTS2 receptor (Homo sapiens, UniProt O95665); assay: Competitive radioligand binding assay on the hNTS2 receptor; settings: for IC50: displacement of 125I-[Tyr3]-NT, membranes of 1321N1 cells expressing hNTS2, read-out: IC50 NTS2 (converted); for Selectivity: ratio IC50 for NTS1 : IC50 for NTS2
T2 construct: membranes prepared from them
Protocol: as §1, §2, §3

T2 sequence (O95665 whole entry): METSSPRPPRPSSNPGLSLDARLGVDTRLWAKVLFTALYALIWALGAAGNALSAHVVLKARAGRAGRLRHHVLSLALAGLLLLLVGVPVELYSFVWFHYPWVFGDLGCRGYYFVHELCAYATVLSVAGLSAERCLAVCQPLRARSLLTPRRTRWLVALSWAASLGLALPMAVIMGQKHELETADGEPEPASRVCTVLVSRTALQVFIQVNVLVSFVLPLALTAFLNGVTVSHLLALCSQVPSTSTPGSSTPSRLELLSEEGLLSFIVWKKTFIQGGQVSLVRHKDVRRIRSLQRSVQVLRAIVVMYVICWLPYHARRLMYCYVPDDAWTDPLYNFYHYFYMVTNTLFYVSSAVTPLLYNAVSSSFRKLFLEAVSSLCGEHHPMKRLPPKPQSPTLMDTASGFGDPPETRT
T1 sequence (P30989 whole entry): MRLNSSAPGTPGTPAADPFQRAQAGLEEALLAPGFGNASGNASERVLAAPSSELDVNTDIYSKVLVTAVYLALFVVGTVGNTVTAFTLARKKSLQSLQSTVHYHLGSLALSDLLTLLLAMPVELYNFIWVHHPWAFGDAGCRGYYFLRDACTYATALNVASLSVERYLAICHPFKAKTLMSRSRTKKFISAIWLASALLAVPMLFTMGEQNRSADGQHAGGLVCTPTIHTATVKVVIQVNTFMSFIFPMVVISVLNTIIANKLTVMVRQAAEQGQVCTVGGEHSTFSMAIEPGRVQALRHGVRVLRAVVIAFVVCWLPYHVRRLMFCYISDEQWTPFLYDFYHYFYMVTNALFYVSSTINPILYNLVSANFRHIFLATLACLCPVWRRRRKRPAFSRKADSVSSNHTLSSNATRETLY

With `CC(C)C[C@H](NC(=O)[C@H](Cc1ccccc1)NC(=O)[C@@H]1CC=CC[C@H](N)C(=O)N[C@@H](CCCCN)C(=O)N[C@@H](CCCCN)C(=O)N1)C(=O)O` [compound 76, c[G(All)KKG(All)FL] (H-[AllylGly]KK[AllylGly]FL-OH; staple 1-4) the IC50 (hNTS1 receptor) was greater than 100 µM, the IC50 (hNTS2 receptor) was 0.0851 µM and the Selectivity (hNTS2 receptor) was greater than 1175.
`CC(C)C[C@H](NC(=O)[C@H](Cc1ccc(F)cc1)NC(=O)[C@@H]1CC=CC[C@H](N)C(=O)N[C@@H](CCCCN)C(=O)N[C@@H](CCCCN)C(=O)N1)C(=O)O` [compound 77, c[G(All)KKG(All)]F(4-fluoro)L] (H-[AllylGly]KK[AllylGly][Phe(4-F)]L-OH; staple 1-4) gave an IC50 (hNTS1 receptor) greater than 100 µM, an IC50 (hNTS2 receptor) of 0.0956 µM and a Selectivity (hNTS2 receptor) greater than 1046.
In the case of `CC(C)C[C@H](NC(=O)[C@H](Cc1ccc(I)cc1)NC(=O)[C@@H]1CC=CC[C@H](N)C(=O)N[C@@H](CCCCN)C(=O)N[C@@H](CCCCN)C(=O)N1)C(=O)O` [compound 78, c[G(All)KKG(All)]F(4-iodo)L] (H-[AllylGly]KK[AllylGly][Phe(4-I)]L-OH; staple 1-4), the IC50 (hNTS1 receptor) is reported as greater than 100 µM, the IC50 (hNTS2 receptor) is reported as 0.0155 µM and the Selectivity (hNTS2 receptor) is reported as greater than 6452.
Compound `CC(C)C[C@H](NC(=O)[C@H](Cc1ccc(O)cc1)NC(=O)[C@@H]1CC=CC[C@H](N)C(=O)N[C@@H](CCCN)C(=O)N[C@@H](CCCCN)C(=O)N1)C(=O)O` [compound 79, c[G(All)OrnKG(All)]YL] (H-[AllylGly][Orn]K[AllylGly]YL-OH; staple 1-4) has an IC50 (hNTS1 receptor) greater than 100 µM, an IC50 (hNTS2 receptor) of 0.0775 µM and a Selectivity (hNTS2 receptor) greater than 1291.
With `CC(C)C[C@H](NC(=O)[C@H](Cc1ccc(O)cc1)NC(=O)[C@@H]1CC=CC[C@H](N)C(=O)N[C@@H](CCN)C(=O)N[C@@H](CCCCN)C(=O)N1)C(=O)O` [compound 80, c[G(All)DabKG(All)]YL] (H-[AllylGly][Dab]K[AllylGly]YL-OH; staple 1-4) the IC50 (hNTS1 receptor) was greater than 100 µM, the IC50 (hNTS2 receptor) was 0.137 µM and the Selectivity (hNTS2 receptor) was greater than 729.
`CC(C)C[C@H](NC(=O)[C@H](Cc1ccc(O)cc1)NC(=O)[C@@H]1CC=CC[C@H](N)C(=O)N[C@@H](CN)C(=O)N[C@@H](CCCCN)C(=O)N1)C(=O)O` [compound 81, c[G(All)DapKG(All)]YL] (H-[AllylGly][Dap]K[AllylGly]YL-OH; staple 1-4) showed an IC50 (hNTS1 receptor) greater than 100 µM, an IC50 (hNTS2 receptor) of 0.18 µM and a Selectivity (hNTS2 receptor) greater than 557.2.
`CC(C)C[C@H](NC(=O)[C@H](Cc1ccc(O)cc1)NC(=O)[C@@H]1CC=CC[C@H](N)C(=O)N[C@H](CCCCN)C(=O)N[C@@H](CCCCN)C(=O)N1)C(=O)O` [compound 82, c[G(All)K*KG(All)]YL] (H-[AllylGly][dK]K[AllylGly]YL-OH; staple 1-4) was tested, and the IC50 (hNTS1 receptor) was greater than 100 µM, the IC50 (hNTS2 receptor) was 0.621 µM and the Selectivity (hNTS2 receptor) was greater than 161.
Compound `CC(C)C[C@H](NC(=O)[C@H](Cc1ccc(O)cc1)NC(=O)[C@@H]1CC=CC[C@H](N)C(=O)N[C@@H](Cc2c[nH]cn2)C(=O)N[C@@H](CCCCN)C(=O)N1)C(=O)O` [compound 83, c[G(All)HKG(All)]YL] (H-[AllylGly]HK[AllylGly]YL-OH; staple 1-4) has an IC50 (hNTS1 receptor) greater than 100 µM, an IC50 (hNTS2 receptor) of 1.32 µM and a Selectivity (hNTS2 receptor) greater than 76.
In the case of `CC(C)C[C@H](NC(=O)[C@H](Cc1ccc(O)cc1)NC(=O)[C@@H]1CC=CC[C@H](N)C(=O)N[C@H](Cc2c[nH]cn2)C(=O)N[C@@H](CCCCN)C(=O)N1)C(=O)O` [compound 84, c[G(All)H*KG(All)]YL] (H-[AllylGly][dH]K[AllylGly]YL-OH; staple 1-4), the IC50 (hNTS1 receptor) is reported as greater than 100 µM, the IC50 (hNTS2 receptor) is reported as 0.646 µM and the Selectivity (hNTS2 receptor) is reported as greater than 154.9.
Compound `CCCC[C@@H]1NC(=O)[C@@H](N)CC=CC[C@@H](C(=O)N[C@@H](Cc2ccc(O)cc2)C(=O)N[C@@H](CC(C)C)C(=O)O)NC(=O)[C@H](CCCCN)NC1=O` [compound 85, c[G(All)NleKG(All)]YL] (H-[AllylGly][Nle]K[AllylGly]YL-OH; staple 1-4) has an IC50 (hNTS1 receptor) greater than 100 µM, an IC50 (hNTS2 receptor) of 1.07 µM and a Selectivity (hNTS2 receptor) greater than 93.
With `CCC[C@@H]1NC(=O)[C@@H](N)CC=CC[C@@H](C(=O)N[C@@H](Cc2ccc(O)cc2)C(=O)N[C@@H](CC(C)C)C(=O)O)NC(=O)[C@H](CCCCN)NC1=O` [compound 86, c[G(All)NvaKG(All)]YL] (H-[AllylGly][Nva]K[AllylGly]YL-OH; staple 1-4) the IC50 (hNTS1 receptor) was greater than 100 µM, the IC50 (hNTS2 receptor) was 0.743 µM and the Selectivity (hNTS2 receptor) was greater than 135.
`CC(C)C[C@H](NC(=O)[C@H](Cc1ccc(O)cc1)NC(=O)[C@@H]1CC=CC[C@H](N)C(=O)NCC(=O)N[C@@H](CCCCN)C(=O)N1)C(=O)O` [compound 87, c[G(All)GKG(All)]YL] (H-[AllylGly]GK[AllylGly]YL-OH; staple 1-4) was tested, and the IC50 (hNTS1 receptor) was greater than 100 µM, the IC50 (hNTS2 receptor) was 0.516 µM and the Selectivity (hNTS2 receptor) was greater than 194.
In the case of `CC(C)C[C@H](NC(=O)[C@H](Cc1ccc(O)cc1)NC(=O)[C@@H]1CC=CC[C@H](N)C(=O)N[C@@H](CCC(=O)O)C(=O)N[C@@H](CCCCN)C(=O)N1)C(=O)O` [compound 88, c[G(All)EKG(All)]YL] (H-[AllylGly]EK[AllylGly]YL-OH; staple 1-4), the IC50 (hNTS1 receptor) is reported as greater than 100 µM, the IC50 (hNTS2 receptor) is reported as 10.6 µM and the Selectivity (hNTS2 receptor) is reported as greater than 9.4.
`CC(C)C[C@H](NC(=O)[C@H](Cc1ccc(O)cc1)NC(=O)[C@@H]1CC=CCCC[C@](C)(N)C(=O)N[C@@H](CCCCN)C(=O)N[C@@H](CCCCN)C(=O)N1)C(=O)O` [compound 89, c[G(alpha-Me-(4-Pentenyl))KKG(All)]YL] (H-[S5]KK[AllylGly]YL-OH; staple 1-4) gave an IC50 (hNTS1 receptor) greater than 100 µM, an IC50 (hNTS2 receptor) of 0.0132 µM and a Selectivity (hNTS2 receptor) greater than 7553.
`CC(C)C[C@H](NC(=O)[C@H](Cc1ccc(O)cc1)NC(=O)[C@@H]1CC=CCCC[C@@](C)(N)C(=O)N[C@@H](CCCCN)C(=O)N[C@@H](CCCCN)C(=O)N1)C(=O)O` [compound 90, c[G*(alpha-Me-(4-Pentenyl))KKG(All)]YL] (H-[R5]KK[AllylGly]YL-OH; staple 1-4) showed an IC50 (hNTS1 receptor) greater than 100 µM, an IC50 (hNTS2 receptor) of 0.0769 µM and a Selectivity (hNTS2 receptor) greater than 1300.
With `CC(C)C[C@H](NC(=O)[C@H](Cc1ccc(O)cc1)NC(=O)C1(C)CCCC=CCCCC(C)(N)C(=O)N[C@@H](CCCCN)C(=O)N[C@@H](CCCCN)C(=O)N1)C(=O)O` (stereo partly drawn) [compound 93, c[G(alpha-Me-(4-Pentenyl))KKG*(alpha-Me(4-Pentenyl))]YL] (H-[ξαMeNle(6-ylidene)]KK[ξαMeNle(6-ylidene)]YL-OH; staple 1-4) the IC50 (hNTS1 receptor) was greater than 100 µM, the IC50 (hNTS2 receptor) was 0.0344 µM and the Selectivity (hNTS2 receptor) was greater than 2907.
`CC(C)C[C@H](NC(=O)[C@H](Cc1ccc(O)cc1)NC(=O)[C@@H]1CC(=O)NC[C@H](N)C(=O)N[C@@H](CCCCN)C(=O)N[C@@H](CCCCN)C(=O)N1)C(=O)O` [compound 94, c[DapKKD]YL] (H-[Dap]KKDYL-OH; lactam 1-4) showed an IC50 (hNTS1 receptor) greater than 100 µM, an IC50 (hNTS2 receptor) of 22.8 µM and a Selectivity (hNTS2 receptor) greater than 4.4.
For `CC(C)C[C@H](NC(=O)[C@H](Cc1ccc(O)cc1)NC(=O)[C@@H]1CC(=O)NCC[C@H](N)C(=O)N[C@@H](CCCCN)C(=O)N[C@@H](CCCCN)C(=O)N1)C(=O)O` [compound 95, c[DabKKD]YL] (H-[Dab]KKDYL-OH; lactam 1-4), the IC50 (hNTS1 receptor) was greater than 100 µM, the IC50 (hNTS2 receptor) was 8.81 µM and the Selectivity (hNTS2 receptor) was greater than 11.4.
`CC(C)C[C@H](NC(=O)[C@H](Cc1ccc(O)cc1)NC(=O)[C@@H]1CC(=O)NCCC[C@H](N)C(=O)N[C@@H](CCCCN)C(=O)N[C@@H](CCCCN)C(=O)N1)C(=O)O` [compound 96, c[OrnKKD]YL] (H-[Orn]KKDYL-OH; lactam 1-4) was tested, and the IC50 (hNTS1 receptor) was greater than 100 µM, the IC50 (hNTS2 receptor) was 1.93 µM and the Selectivity (hNTS2 receptor) was greater than 51.8.
